# Source: patent US11912701B2, “Protein kinase inhibitors for promoting liver regeneration or reducing or preventing hepatocyte death” (HEPAREGENIX GMBH, priority 2018, dated 2024)
# Legend:
# MKK7 [1] = target: T1, MKK7 (Homo sapiens, UniProt O14733); assay: KINOMEscan competition binding assay, MKK7; set-up: M1/R419; host or cells: HEK-293; conditions: ratio PoC (off-target)/PoC (MKK4)
# T1 sequence (O14733 1-419): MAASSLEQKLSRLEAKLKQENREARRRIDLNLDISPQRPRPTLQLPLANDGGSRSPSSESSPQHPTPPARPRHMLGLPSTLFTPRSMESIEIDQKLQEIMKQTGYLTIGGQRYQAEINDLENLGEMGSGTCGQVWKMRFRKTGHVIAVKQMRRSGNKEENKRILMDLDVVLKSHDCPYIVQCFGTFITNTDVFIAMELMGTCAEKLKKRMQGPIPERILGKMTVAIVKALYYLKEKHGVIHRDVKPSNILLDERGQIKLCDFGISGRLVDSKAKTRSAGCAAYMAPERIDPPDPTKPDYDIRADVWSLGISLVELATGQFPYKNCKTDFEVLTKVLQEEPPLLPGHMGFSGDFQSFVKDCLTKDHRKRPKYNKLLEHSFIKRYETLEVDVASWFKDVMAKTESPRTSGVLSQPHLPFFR
# Summary of the method: (§1)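 DNA-tagged kinases expressed in HEK-293 cells compete between immobilized ligand on blocked beads and test compound at 100 nM; kinase retained on beads quantified by qPCR of the tag.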
# JNK1 [2] = target: T2, JNK1 (Homo sapiens, UniProt P45983); assay: KINOMEscan competition binding assay, JNK1; set-up: M1/Q384; host or cells: HEK-293; conditions: ratio PoC (off-target)/PoC (MKK4)
# Summary of the method: as §1
# Target sequence in this assay (P45983 1-384 isoform P45983-2): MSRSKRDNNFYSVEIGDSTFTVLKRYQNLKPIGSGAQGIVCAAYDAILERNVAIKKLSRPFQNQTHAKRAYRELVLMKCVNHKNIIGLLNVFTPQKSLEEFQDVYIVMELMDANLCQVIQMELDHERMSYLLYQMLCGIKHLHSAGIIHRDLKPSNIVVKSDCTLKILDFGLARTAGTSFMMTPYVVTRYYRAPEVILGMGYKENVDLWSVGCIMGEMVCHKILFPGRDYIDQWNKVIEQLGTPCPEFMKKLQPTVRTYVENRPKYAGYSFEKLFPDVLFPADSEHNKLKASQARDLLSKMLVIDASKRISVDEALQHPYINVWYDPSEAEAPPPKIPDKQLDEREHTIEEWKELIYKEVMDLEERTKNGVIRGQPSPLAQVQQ
# BRaf = target: T3, BRaf (Homo sapiens, UniProt P15056); assay: KINOMEscan competition binding assay, BRaf; conditions: ratio PoC (off-target)/PoC (MKK4)
# T3 construct: purchased ProQinase GmbH, Freiburg, Germany (33PanQinase Assay Service)
# Summary of the method: as §1
# MKK7 [3] = target: T1, MKK7; assay: 33PanQinase enzyme assay, MKK7; assay type: biochemical; set-up: purchased ProQinase GmbH, Freiburg, Germany (33PanQinase Assay Service); conditions: ratio IC50(MKK7)/IC50(MKK4)
# Summary of the method: (§2)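 33Pi incorporation, read by microplate scintillation counting, measured kinase activity after 60 min at 30 °C. Reactions were quenched with 2% (v/v) H3PO4 and washed with 0.9% NaCl. IC50 derived by least-squares fitting; single doses reported as % residual activity.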
# MKK4 [4] = target: T4, MKK4 (Homo sapiens, UniProt P45985); assay: KINOMEscan competition binding assay, MKK4; conditions: residual percent of control binding (PoC) at 100 nM
# T4 construct: S84/D399; host or cells: HEK-293
# T4 sequence (P45985 84-399): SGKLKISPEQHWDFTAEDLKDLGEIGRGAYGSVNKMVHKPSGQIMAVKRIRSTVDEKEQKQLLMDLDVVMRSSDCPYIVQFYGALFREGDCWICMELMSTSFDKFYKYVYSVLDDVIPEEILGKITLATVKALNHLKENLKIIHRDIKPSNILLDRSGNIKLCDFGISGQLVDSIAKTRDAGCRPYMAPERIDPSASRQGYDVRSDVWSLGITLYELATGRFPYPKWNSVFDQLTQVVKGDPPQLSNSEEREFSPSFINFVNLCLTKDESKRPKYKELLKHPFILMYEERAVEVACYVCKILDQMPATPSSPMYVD
# Summary of the method: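 Tested at 100 nM and reported as percent of control binding (PoC). MKK4 was produced in HEK-293 cells and DNA-tagged. Displacement from ligand-coated, blocked beads was read by qPCR of eluted kinase.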
# JNK1 [5] = target: T2, JNK1; assay: 33PanQinase enzyme assay, JNK1; assay type: biochemical; set-up: purchased ProQinase GmbH, Freiburg, Germany (33PanQinase Assay Service); conditions: ratio IC50(JNK1)/IC50(MKK4)
# Summary of the method: as §2
# Target sequence in this assay (P45983 whole entry): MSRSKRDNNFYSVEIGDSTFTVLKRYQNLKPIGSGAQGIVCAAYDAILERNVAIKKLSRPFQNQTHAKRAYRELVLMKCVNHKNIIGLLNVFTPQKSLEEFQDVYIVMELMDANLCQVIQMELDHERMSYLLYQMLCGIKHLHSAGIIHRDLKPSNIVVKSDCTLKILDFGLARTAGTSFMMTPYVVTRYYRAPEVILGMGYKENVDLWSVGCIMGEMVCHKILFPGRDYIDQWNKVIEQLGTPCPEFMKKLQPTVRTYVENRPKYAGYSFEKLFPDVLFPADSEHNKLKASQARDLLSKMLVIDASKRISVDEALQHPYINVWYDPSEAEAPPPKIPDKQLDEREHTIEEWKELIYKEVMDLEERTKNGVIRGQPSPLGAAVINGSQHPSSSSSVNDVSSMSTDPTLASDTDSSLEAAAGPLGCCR
# MKK4 [6] = target: T5, MKK4 (Homo sapiens, UniProt P45985); assay: 33PanQinase enzyme assay, MKK4; assay type: biochemical; conditions: for IC50: assay 'IC50', read-out: Potency MKK4 (IC50)
# T5 construct: purchased ProQinase GmbH, Freiburg, Germany (33PanQinase Assay Service)
# T5 sequence (P45985 1-399): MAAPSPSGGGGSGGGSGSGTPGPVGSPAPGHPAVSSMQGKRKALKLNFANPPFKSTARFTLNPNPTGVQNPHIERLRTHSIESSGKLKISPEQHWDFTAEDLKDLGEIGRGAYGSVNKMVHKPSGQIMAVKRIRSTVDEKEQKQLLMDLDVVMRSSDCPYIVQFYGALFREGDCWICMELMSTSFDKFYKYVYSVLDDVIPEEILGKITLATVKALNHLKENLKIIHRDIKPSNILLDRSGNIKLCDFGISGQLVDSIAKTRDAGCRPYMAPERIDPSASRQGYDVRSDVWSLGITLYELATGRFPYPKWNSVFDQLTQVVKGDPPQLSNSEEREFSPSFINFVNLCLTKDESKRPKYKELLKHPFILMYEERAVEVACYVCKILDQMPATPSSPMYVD
# Summary of the method: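 Inhibition measured as 33Pi transfer to substrate after a 60-min, 30 °C reaction, acid-stopped and scintillation-counted.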
# T3 sequence (P15056 whole entry, species assumed): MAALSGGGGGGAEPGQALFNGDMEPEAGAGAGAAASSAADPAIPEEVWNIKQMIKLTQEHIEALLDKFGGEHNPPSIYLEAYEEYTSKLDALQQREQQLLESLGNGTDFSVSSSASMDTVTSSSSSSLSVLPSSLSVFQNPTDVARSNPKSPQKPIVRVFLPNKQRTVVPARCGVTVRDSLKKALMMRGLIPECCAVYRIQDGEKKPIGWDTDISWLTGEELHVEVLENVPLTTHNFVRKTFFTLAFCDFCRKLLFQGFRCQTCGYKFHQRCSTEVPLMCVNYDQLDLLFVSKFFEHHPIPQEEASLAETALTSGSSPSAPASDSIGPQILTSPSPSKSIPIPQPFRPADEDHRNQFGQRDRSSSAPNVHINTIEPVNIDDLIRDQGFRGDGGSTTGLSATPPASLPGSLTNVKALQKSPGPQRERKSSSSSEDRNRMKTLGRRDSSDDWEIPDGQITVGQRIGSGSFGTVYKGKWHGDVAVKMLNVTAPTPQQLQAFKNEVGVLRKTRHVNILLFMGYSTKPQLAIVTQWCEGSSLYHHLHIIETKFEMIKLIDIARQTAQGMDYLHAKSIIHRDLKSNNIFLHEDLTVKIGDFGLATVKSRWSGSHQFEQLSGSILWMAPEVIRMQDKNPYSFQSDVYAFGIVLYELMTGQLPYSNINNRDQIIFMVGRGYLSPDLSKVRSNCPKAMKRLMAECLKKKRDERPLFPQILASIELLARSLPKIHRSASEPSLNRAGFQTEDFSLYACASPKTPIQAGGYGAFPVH
Compound,selectivity based on % Ctrl @100 nM vs. MKK7 (MKK7 [1]),selectivity based on % Ctrl @100 nM vs. JNK1 (JNK1 [2]),selectivity based on % Ctrl @100 nM vs. Braf (BRaf),"Selectivity IVIKK7, IC50(off-target)/IC50(MKK4) (MKK7 [3])",MKK4 [% Ctrl @ 100 nM (MKK4 [4]),"Selectivity JNK1, IC50(off-target)/IC50(MKK4) (JNK1 [5])",IC50 (MKK4 [6]) [nM],"remaining activity at 0.1 µM (MKK4 [6]; single concentration 100 nM, read-out: Potency MKK4 (residual activity, assay at single concentration)) [%]"
CCCS(=O)(=O)Nc1ccc(F)c(C(=O)c2c[nH]c3ncc(-c4ccnnc4)cc23)c1F [Example 49],+++ (Ratio > 100),+++ (Ratio > 100),◯ (3 ≥ Ratio),++ (100 ≥ IC50(off-target)/IC50(MKK4) > 10),+++ (PoC < 1),++ (100 ≥ IC50(off-target)/IC50(MKK4) > 10),1000 to 10000,
CCCS(=O)(=O)Nc1ccc(F)c(C(=O)c2c[nH]c3ncc(-c4cccnc4)cc23)c1F [Example 58],+++ (Ratio > 100),+++ (Ratio > 100),++ (100 ≥ ratio > 10),++ (100 ≥ IC50(off-target)/IC50(MKK4) > 10),+++ (PoC < 1),◯ (3 ≥ IC50(off-target)/IC50(MKK4)),100 to 1000,
"O=C(c1c(F)ccc(NS(=O)(=O)CCCO)c1F)c1c[nH]c2ncc(-c3ccc(Cl)cc3)cc12 [Example 67, N-(3-(5-(4-chlorophenyl)-1H-pyrrolo[2,3-b]pyridine-3-carbonyl)-2,4-difluorophenyl)-3-hydroxypropane-1-sulfonamide]",◯ (3 ≥ Ratio),◯ (3 ≥ Ratio),◯ (3 ≥ Ratio),,◯ (30 ≤ PoC),,,> 90
"CCCS(=O)(=O)Nc1ccc(F)c(C(=O)c2c[nH]c3ncc(-c4cnc[nH]4)cc23)c1F [Example 83, N-(3-(5-(1H-imidazol-5-yl)-1H-pyrrolo[2,3-b]pyridine-3-carbonyl)-2,4-difluorophenyl)propane-1-sulfonamide]",+++ (Ratio > 100),+++ (Ratio > 100),◯ (3 ≥ Ratio),++·,+++ (PoC < 1),◯ (3 ≥ IC50(off-target)/IC50(MKK4)),100 to 1000,
"CCCS(=O)(=O)Nc1ccc(F)c(C(=O)c2c[nH]c3ncc(-c4ccn[nH]4)cc23)c1F [Example 84, N-(3-(5-(1H-pyrazol-5-yl)-1H-pyrrolo[2,3-b]pyridine-3-carbonyl)-2,4-difluorophenyl)propane-1-sulfonamide]",+++ (Ratio > 100),+++ (Ratio > 100),◯ (3 ≥ Ratio),+++ (IC50(off-target)/IC50(MKK4) > 100),+++ (PoC < 1),◯ (3 ≥ IC50(off-target)/IC50(MKK4)),100 to 1000,
"CCCS(=O)(=O)Nc1ccc(F)c(C(=O)c2c[nH]c3ncc(-c4nc[nH]n4)cc23)c1F [Example 85, N-(3-(5-(1H-1,2,4-triazol-3-yl)-1H-pyrrolo[2,3-b]pyridine-3-carbonyl)-2,4-difluorophenyl)propane-1-sulfonamide]",++ (100 ≥ ratio > 10),++ (100 ≥ ratio > 10),◯ (3 ≥ Ratio),++ (100 ≥ IC50(off-target)/IC50(MKK4) > 10),+ (3 ≤ PoC < 30),◯ (3 ≥ IC50(off-target)/IC50(MKK4)),1000 to 10000,
"CCCS(=O)(=O)Nc1ccc(F)c(C(=O)c2c[nH]c3ncc(-c4nncs4)cc23)c1F [Example 86, N-(3-(5-(1,3,4-thiadiazol-2-yl)-1H-pyrrolo[2,3-b]pyridine-3-carbonyl)-2,4-difluorophenyl)propane-1-sulfonamide]",++ (100 ≥ ratio > 10),++ (100 ≥ ratio > 10),◯ (3 ≥ Ratio),++ (100 ≥ IC50(off-target)/IC50(MKK4) > 10),+ (3 ≤ PoC < 30),◯ (3 ≥ IC50(off-target)/IC50(MKK4)),1000 to 10000,
"CCCS(=O)(=O)Nc1ccc(F)c(C(=O)c2c[nH]c3ncc(-c4csc(SC)n4)cc23)c1F [Example 87, N-(2,4-difluoro-3-(5-(2-(methylthio)thiazol-4-yl)-1H-pyrrolo[2,3-b]pyridine-3-carbonyl)phenyl)propane-1-sulfonamide]",◯ (3 ≥ Ratio),◯ (3 ≥ Ratio),◯ (3 ≥ Ratio),◯ (3 ≥ IC50(off-target)/IC50(MKK4)),◯ (30 ≤ PoC),◯ (3 ≥ IC50(off-target)/IC50(MKK4)),> 10000,
"CCCS(=O)(=O)Nc1ccc(F)c(C(=O)c2c[nH]c3ncc(-c4c[nH]c(=O)cn4)cc23)c1F [Example 88, N-(2,4-difluoro-3-(5-(5-oxo-4,5-dihydropyrazin-2-yl)-1H-pyrrolo[2,3-b]pyridine-3-carbonyl)phenyl)propane-1-sulfonamide]",+++ (Ratio > 100),+++ (Ratio > 100),+ (10 ≥ ratio > 3),++ (100 ≥ IC50(off-target)/IC50(MKK4) > 10),+++ (PoC < 1),◯ (3 ≥ IC50(off-target)/IC50(MKK4)),100 to 1000,
"CCCS(=O)(=O)Nc1ccc(F)c(C(=O)c2c[nH]c3ncc(-c4cc[nH]c4)cc23)c1F [Example 100, N-(3-(5-(1H-pyrrol-3-yl)-1H-pyrrolo[2,3-b]pyridine-3-carbonyl)-2,4-difluorophenyl)propane-1-sulfonamide]",++ (100 ≥ ratio > 10),++ (100 ≥ ratio > 10),◯ (3 ≥ Ratio),◯ (3 ≥ IC50(off-target)/IC50(MKK4)),+ (3 ≤ PoC < 30),◯ (3 ≥ IC50(off-target)/IC50(MKK4)),> 10000,
"CCCS(=O)(=O)Nc1ccc(F)c(C(=O)c2c[nH]c3ncc(C4CCC4)cc23)c1F [Example 123, N-(3-(5-cyclobutyl-1-pyrrolo[2,3-b]pyridine-3-carbonyl)-2,4-difluorophenyl)propane-1-sulfonamide]",+++ (Ratio > 100),+++ (Ratio > 100),++ (100 ≥ ratio > 10),+++ (IC50(off-target)/IC50(MKK4) > 100),+++ (PoC < 1),◯ (3 ≥ IC50(off-target)/IC50(MKK4)),100 to 1000,
